Data on two compounds can be found in patent US20120309753A1, “METHOD OF DISSOLVING ANTIFUNGAL AGENT, AND COMPOSITIONS WITH A HIGH CONCENTRATION OF ANTIFUNGAL AGENT, SUITABLE FOR APPLICATION TO THE NAIL” (GALDERMA RESEARCH & DEVELOPMENT, priority 2009, published 2012).

Where a name gives a salt, the structure may show the parent alone. Read-outs that look alike come from different tables or passages of the source.

Data set [1] can be described thus: Visual solubility of terbinafine HCl in solvent systems (Method 1). In kind it is physicochemical. The method, then: Terbinafine HCl is weighed out accurately into a 20 ml flask and then the solvents are added. The flask is subsequently placed, with magnetic stirring, in a chamber thermostated at 20° C., for 16 h. If some of the active ingredient has not dissolved, a further addition of solvent is made. The flask is then placed again, with magnetic stirring, in the thermostated chamber, for 16 h, until dissolution is complete. If this is not so, the preceding step is repeated.

The procedure of data set [2]:
Different solubility tests on terbinafine HCl were carried out in different solvent systems. The solubility was both estimated visually by Method 1 below, then quantified by HPLC assay by Method 2 below.
Weigh out precisely approximately 15 mg of terbinafine HCl into a 50 ml volumetric flask. Dissolve in the diluent and make up to the volume with the same solvent. Prepare the solution in duplicate (A1, A2)
Dilute solution A to 1/5 in the diluent. Dilution
The standard range is produced by varying the injection volume of solution A, at an equivalent concentration of 4 μg/ml to 120 μg/ml.
2 tests per sample are prepared, of concentrations from 40 μg/ml to 100 μg/ml.
• Column: Sun Fire C18 4.6×100 mm 3.5 μm, fitted with a precolumn. • Column temperature: 30° C. • Flow rate: 1.5 ml/min • Injected volume: 30 μl for the sample solutions • Analysis time: 10 min • Detection at: 285 nm • Gradient:
• Inject a blank sample (diluent) and check that no peak of the blank sample interferes with the terbinafine HCl. • Inject solutions STD1 and STD2 and check that the % deviation between the 2 controls is <2%.

Another data set concerns Trichophyton rubrum. The settings on record: oral route, 250 mg/day for 6 months; cited from earlier work.

`CN(C/C=C/C#CC(C)(C)C)Cc1cccc2ccccc12` [terbinafine HCl, terbinafine hydrochloride]: the visual solubility in data set [1] (15% water, 70% ethanol, 15% propylene glycol) is 25.2 % w/w; in data set [1] (15% water, 70% propylene glycol, 15% ethanol) it was 25.0 % w/w; in data set [1] (30% water, 35% propylene glycol, 35% ethanol), 18.5 % w/w; in data set [1] (33% water, 33% propylene glycol, 33% ethanol) it was 15.5 % w/w; in data set [1] (50/50 ethanol/propylene glycol mixture, 20° C.), 23.3 % w/w; in data set [1] (binary water/ethanol mixture (50/50), 20° C.), 16.7 % w/w. Moreover, the visual solubility amounted to 2.2 % w/w in data set [1] (binary water/propylene glycol mixture (50/50), 20° C.); 19.7 % w/w in data set [1] (in ethanol, 20° C.); 8.9 % w/w in data set [1] (in propylene glycol, 20° C.); 0.6 % w/w in data set [1] (in water, 20° C.). In data set [1] (ternary water/propylene glycol/ethanol mixture containing at least 30% of water (Graph 1)), the solubility entry is “greater than 10%”. Besides, the “solubility by HPLC assay” value worked out at 20.4 % w/w in data set [2] (50/50 ethanol/propylene glycol mixture), 18.09 % w/w in data set [2] (in ethanol) and 10.3 % w/w in data set [2] (in propylene glycol). Further, the “expected solubility by additive effect” value in data set [2] (ethanol/propylene glycol binary mixture, expected from the single solvents) was ~14%.
On to `CN(C/C=C/C#CC(C)(C)C)Cc1cccc2ccccc12` [terbinafine], for which, in data set [1] (ternary mixture with 40% of water, amount of ethanol greater than or equal to that of propylene glycol), the solubility result is “greater than 10%”. For the same compound, the “efficacy in the treatment of onychomycoses due to Trichophyton rubrum” value in the data set on Trichophyton rubrum was “effective”.
